In brackets after ≈: the same amount, converted by molar mass. Where two headings read alike, the source gives them in different places. Numbered stars: 1 amine (or outer) side, 2 acyl side, 3 side chain; on linkers, the order of the positions; unused ones are H or OH. Bridge positions count the residues as written; N and C are the ends. Side chains are listed from the residue outwards. Peptide text beside a SMILES is read from it. * marks the point of attachment. C20 diacid = O=C(O)CCCCCCCCCCCCCCCCCCC(=O)*; γGlu = O=C(O)[C@H](CCC(=O)[*:2])N[*:1]; AEEA = NCCOCCOCC(=O)O
Assays:
[1] = target: T1, human calcitonin receptor (Homo sapiens, UniProt P30988); assay: ASSAY (VII) binding to the human calcitonin receptor (SPA, 125I-Calcitonin);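 also: cell membranes (35 ng/µL) combined with SPA beads in 40 µL of pH 7.4 Hepes buffer, 384-well format, signal counted on a TopCounter instrument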
T1 construct: expressed in transfected cells
T1 sequence (P30988 25-474): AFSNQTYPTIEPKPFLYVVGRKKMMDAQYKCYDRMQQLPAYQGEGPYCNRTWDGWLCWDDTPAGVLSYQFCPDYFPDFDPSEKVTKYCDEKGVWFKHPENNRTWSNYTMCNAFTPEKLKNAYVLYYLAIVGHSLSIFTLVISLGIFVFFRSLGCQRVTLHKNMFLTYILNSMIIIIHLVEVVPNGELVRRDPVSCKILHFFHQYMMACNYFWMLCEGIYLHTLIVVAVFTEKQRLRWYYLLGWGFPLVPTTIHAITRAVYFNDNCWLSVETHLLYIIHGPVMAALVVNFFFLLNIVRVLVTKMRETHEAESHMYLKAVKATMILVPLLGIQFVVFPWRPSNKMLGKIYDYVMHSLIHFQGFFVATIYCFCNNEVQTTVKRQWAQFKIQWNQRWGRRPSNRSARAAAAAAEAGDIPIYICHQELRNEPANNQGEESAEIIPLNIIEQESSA

[2] = ASSAY (IV) determination of solubility; type: physicochemical
Summary of the method: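 Solubility measured by UPLC of supernatant after centrifugation, following 18 h at room temperature. Peptide ([…] in water) was diluted 1:1 into 100 mM glycylglycine (pH 3.0, 4.0, 5.0) or bistrispropane (pH 6.0-8.0).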

[3] = target: T2, human calcitonin (a) receptor in BHK570 cells (Homo sapiens, UniProt P30988); assay: ASSAY (II)a functional assay, human calcitonin receptor (CRE luciferase); type: cell-based
T2 construct: expressed in transfected cells
T2 sequence (P30988 25-474): T1 sequence (P30988 25-474)
Summary of the method: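 Readout is luminescence from a cAMP-responsive CRE-luc reporter, developed with LucLite for 30 min at room temperature. Cells were treated for 3 h at 37 °C in 10% FBS/DMEM buffered with 10 mM Hepes (pH 7.4).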

[4] = bistrispropane buffer, pH 6.5, read-out: Solubility pH 6.5 Concentration
[5] = bistrispropane buffer, pH 7.5, read-out: Solubility pH 7.5 Concentration
[6] = bistrispropane buffer, pH 6.0, read-out: Solubility pH 6.0 Concentration
[7] = bistrispropane buffer, pH 7.0, read-out: Solubility pH 7.0 Concentration
[8] = bistrispropane buffer, pH 8.0, read-out: Solubility pH 8.0 Concentration
[9] = glycylglycine buffer, pH 3.0, read-out: Solubility pH 3.0 Concentration
[10] = glycylglycine buffer, pH 4.0, read-out: Solubility pH 4.0 Concentration
[11] = glycylglycine buffer, pH 5.0, read-out: Solubility pH 5.0 Concentration

Row | IC50 ([1]; read-out: hCTR bind IC50) [nM] | solubility at 18 h [2, 4] [µM] | solubility at 18 h [2, 5] [µM] | solubility at 18 h [2, 6] [µM] | solubility at 18 h [2, 7] [µM] | solubility at 18 h [2, 8] [µM] | solubility at 18 h [2, 9] [µM] | solubility at 18 h [2, 10] [µM] | solubility at 18 h [2, 11] [µM] | EC50 ([3]; read-out: hCTR funct. EC50) [nM] | Structure (SMILES) | IC50 [1] [nM] | solubility at 18 h ([2]; pH 3.0, read-out: Solubility pH 3.0 Concentration) [µM] | solubility at 18 h ([2]; pH 4.0, read-out: Solubility pH 4.0 Concentration) [µM] | solubility at 18 h ([2]; pH 5.0, read-out: Solubility pH 5.0 Concentration) [µM] | solubility at 18 h ([2]; pH 6.0, read-out: Solubility pH 6.0 Concentration) [µM] | solubility at 18 h ([2]; pH 6.5, read-out: Solubility pH 6.5 Concentration) [µM] | solubility at 18 h ([2]; pH 7.0, read-out: Solubility pH 7.0 Concentration) [µM] | solubility at 18 h ([2]; pH 7.5, read-out: Solubility pH 7.5 Concentration) [µM] | solubility at 18 h ([2]; pH 8.0, read-out: Solubility pH 8.0 Concentration) [µM] | EC50 [3] [nM]
1 | 61.3 | ≥ 200 | ≥ 200 | ≥ 200 | ≥ 200 | ≥ 200 | ≥ 200 | ≥ 200 | ≥ 200 | 21.5 | CC[C@H](C)[C@H](NC(=O)[C@H](C)NC(=O)CNC(=O)[C@H](Cc1ccccc1)NC(=O)[C@H](CC(N)=O)NC(=O)[C@@H]1CCCN1C(=O)[C@H](CO)NC(=O)[C@H](CO)NC(=O)[C@H](Cc1c[nH]cn1)NC(=O)[C@H](CCCNC(=N)N)NC(=O)[C@H](CC(C)C)NC(=O)[C@H](Cc1ccccc1)NC(=O)[C@H](CC(N)=O)NC(=O)[C@H](C)NC(=O)[C@H](CC(C)C)NC(=O)[C@H](CCCNC(=N)N)NC(=O)[C@H](CCC(N)=O)NC(=O)[C@@H](NC(=O)[C@H](C)NC(=O)[C@@H]1CSSC[C@H](NC(=O)[C@@H](N)CCCCNC(=O)COCCOCCNC(=O)COCCOCCNC(=O)CC[C@H](NC(=O)CCCCCCCCCCCCCCCCCCC(=O)O)C(=O)O)C(=O)N[C@@H](CC(N)=O)C(=O)N[C@@H]([C@@H](C)O)C(=O)N[C@@H](C)C(=O)N[C@@H]([C@@H](C)O)C(=O)N1)[C@@H](C)O)C(=O)N1CCC[C@H]1C(=O)N[C@@H](CO)C(=O)N[C@@H](CO)C(=O)N[C@H](C(=O)N[C@@H](CC(N)=O)C(=O)N[C@H](C(=O)NCC(=O)N[C@@H](CCCNC(=N)N)C(=O)N[C@@H](CC(N)=O)C(=O)N[C@H](C(=O)N[C@@H](Cc1ccc(O)cc1)C(N)=O)[C@@H](C)O)C(C)C)[C@@H](C)O [Example 95] (H-K([AEEA-AEEA-γGlu-C20 diacid])CNTATCATQRLANFLRHSSPNFGAIPSSTNVGRNTY-NH2; disulfide 2-7 (inferred); N-terminus assumed) |  |  |  |  |  |  |  |  |  | 
2 | 29.2 | ≥ 200 | 69 (≈ 309 µg/mL) | ≥ 200 | 182 (≈ 814 µg/mL) | 83 (≈ 371 µg/mL) | ≥ 200 | ≥ 200 | ≥ 200 | 0.537 | CC[C@H](C)[C@H](NC(=O)[C@H](C)NC(=O)CNC(=O)[C@H](Cc1ccccc1)NC(=O)[C@H](CC(N)=O)NC(=O)[C@@H]1CCCN1C(=O)[C@H](CO)NC(=O)[C@H](CO)NC(=O)[C@H](Cc1c[nH]cn1)NC(=O)[C@H](CCCNC(=N)N)NC(=O)[C@H](CC(C)C)NC(=O)[C@H](Cc1ccccc1)NC(=O)[C@H](C)NC(=O)[C@H](C)NC(=O)[C@H](CC(C)C)NC(=O)[C@H](CCCNC(=N)N)NC(=O)[C@H](CCC(N)=O)NC(=O)[C@@H](NC(=O)[C@H](C)NC(=O)[C@@H]1CSSC[C@H](NC(=O)[C@H](CCCNC(=N)N)NC(=O)CNC(=O)CC[C@H](NC(=O)CCCCCCCCCCCCCCCCCCC(=O)O)C(=O)O)C(=O)N[C@@H](CC(N)=O)C(=O)N[C@@H]([C@@H](C)O)C(=O)N[C@@H](C)C(=O)N[C@@H]([C@@H](C)O)C(=O)N1)[C@@H](C)O)C(=O)N1CCC[C@H]1C(=O)N[C@@H](CO)C(=O)N[C@@H](CO)C(=O)N[C@H](C(=O)N[C@@H](CC(N)=O)C(=O)N[C@H](C(=O)NCC(=O)N[C@@H](Cc1c[nH]cn1)C(=O)N[C@@H](CC(N)=O)C(=O)N[C@H](C(=O)N[C@@H](Cc1ccc(O)cc1)C(N)=O)[C@@H](C)O)C(C)C)[C@@H](C)O [Example 101] ({C20 diacid-γGlu}-GRCNTATCATQRLAAFLRHSSPNFGAIPSSTNVGHNTY-NH2; disulfide 3-8) |  |  |  |  |  |  |  |  |  | 
3 |  |  |  |  |  |  |  |  |  |  | CC[C@H](C)[C@H](NC(=O)[C@H](C)NC(=O)CNC(=O)[C@H](Cc1ccccc1)NC(=O)[C@H](CC(N)=O)NC(=O)[C@@H]1CCCN1C(=O)[C@H](CO)NC(=O)[C@H](CO)NC(=O)[C@H](Cc1c[nH]cn1)NC(=O)[C@H](CCCNC(=N)N)NC(=O)[C@H](CC(C)C)NC(=O)[C@H](Cc1ccccc1)NC(=O)[C@H](C)NC(=O)[C@H](C)NC(=O)[C@H](CC(C)C)NC(=O)[C@H](CCCNC(=N)N)NC(=O)[C@H](CCC(N)=O)NC(=O)[C@@H](NC(=O)[C@H](C)NC(=O)[C@@H]1CSSC[C@H](NC(=O)[C@H](CCCNC(=N)N)NC(=O)CNC(=O)CC[C@H](NC(=O)CCCCCCCCCCCCCCCCCCC(=O)O)C(=O)O)C(=O)N[C@@H](CC(N)=O)C(=O)N[C@@H]([C@@H](C)O)C(=O)N[C@@H](C)C(=O)N[C@@H]([C@@H](C)O)C(=O)N1)[C@@H](C)O)C(=O)N1CCC[C@H]1C(=O)N[C@@H](CO)C(=O)N[C@@H](CO)C(=O)N[C@H](C(=O)N[C@@H](CC(N)=O)C(=O)N[C@H](C(=O)NCC(=O)N1CCC[C@H]1C(=O)N[C@@H](CC(N)=O)C(=O)N[C@H](C(=O)N[C@@H](Cc1ccc(O)cc1)C(N)=O)[C@@H](C)O)C(C)C)[C@@H](C)O [Example 103] ({C20 diacid-γGlu}-GRCNTATCATQRLAAFLRHSSPNFGAIPSSTNVGPNTY-NH2; disulfide 3-8) | 3 | ≥ 200 | ≥ 200 | ≥ 200 | ≥ 200 | ≥ 200 | ≥ 200 | 141 (≈ 625 µg/mL) | 194 (≈ 860 µg/mL) | 0.148
4 | 14.1 | ≥ 200 | ≥ 200 | ≥ 200 | ≥ 200 | ≥ 200 | ≥ 200 | ≥ 200 | ≥ 200 | 7.43 | CC[C@H](C)[C@H](NC(=O)[C@H](C)NC(=O)CNC(=O)[C@H](Cc1ccccc1)NC(=O)[C@H](CC(N)=O)NC(=O)[C@@H]1CCCN1C(=O)[C@H](CO)NC(=O)[C@H](CO)NC(=O)[C@H](Cc1c[nH]cn1)NC(=O)[C@H](CCCNC(=N)N)NC(=O)[C@H](CC(C)C)NC(=O)[C@H](Cc1ccccc1)NC(=O)[C@H](CCC(=O)O)NC(=O)[C@H](C)NC(=O)[C@H](CC(C)C)NC(=O)[C@H](CCCNC(=N)N)NC(=O)[C@H](CCC(N)=O)NC(=O)[C@@H](NC(=O)[C@H](C)NC(=O)[C@@H]1CSSC[C@H](NC(=O)[C@@H](N)CCCCNC(=O)CC[C@H](NC(=O)CC[C@H](NC(=O)CCCCCCCCCCCCCCCCCCC(=O)O)C(=O)O)C(=O)O)C(=O)N[C@@H](CC(N)=O)C(=O)N[C@@H]([C@@H](C)O)C(=O)N[C@@H](C)C(=O)N[C@@H]([C@@H](C)O)C(=O)N1)[C@@H](C)O)C(=O)N1CCC[C@H]1C(=O)N[C@@H](CO)C(=O)N[C@@H](CO)C(=O)N[C@H](C(=O)N[C@@H](CC(N)=O)C(=O)N[C@H](C(=O)NCC(=O)N[C@@H](CCCNC(=N)N)C(=O)N[C@@H](CCC(=O)O)C(=O)N[C@H](C(=O)N[C@@H](Cc1ccc(O)cc1)C(N)=O)[C@@H](C)O)C(C)C)[C@@H](C)O [Example 105] (H-K([γGlu-γGlu-C20 diacid])CNTATCATQRLAEFLRHSSPNFGAIPSSTNVGRETY-NH2; disulfide 2-7; N-terminus assumed) |  |  |  |  |  |  |  |  |  | 
